Columns and labels:
[1] = target: E3 ubiquitin-protein ligase CBL-B (Homo sapiens, UniProt Q13191); assay: Inhibition of N-terminal Avi-tagged human CBL-B (36 to 427 residues) incubated with 60 nM Src kinase for 1.5 hrs followed by incubation with fluorescently labeled UbcH5B-Ub for 1 hr and measured by TR-FRET assay; type: single protein
[2] = Induction of anti-CD3/CD28 antibodies-stimulated human T cell activation at 1 uM assessed fold increase in IL-2 secretion measured by ELISA assay; type: functional, T cell line
[3] = Induction of anti-CD3/CD28 antibodies-stimulated human T cell activation at 0.3 uM assessed fold increase in IL-2 secretion measured by ELISA assay; type: functional, T cell line
[4] = Induction of anti-CD3 antibodies-stimulated human T cell activation at 1 uM assessed fold increase in IL-2 secretion measured by ELISA assay; type: functional, T cell line
[5] = Induction of anti-CD3/CD28 antibodies-stimulated human T cell activation at 1 uM assessed fold increase in CD25 expression measured by ELISA assay; type: functional, T cell line
[6] = Induction of anti-CD3/CD28 antibodies-stimulated human T cell activation at 0.3 uM assessed fold increase in CD25 expression measured by ELISA assay; type: functional, T cell line
[7] = Induction of anti-CD3 antibodies-stimulated human T cell activation at 1 uM assessed fold increase in CD25 expression measured by ELISA assay; type: functional, T cell line

Chain of E3 ubiquitin-protein ligase CBL-B (Q13191 whole entry, the tested form may be a part): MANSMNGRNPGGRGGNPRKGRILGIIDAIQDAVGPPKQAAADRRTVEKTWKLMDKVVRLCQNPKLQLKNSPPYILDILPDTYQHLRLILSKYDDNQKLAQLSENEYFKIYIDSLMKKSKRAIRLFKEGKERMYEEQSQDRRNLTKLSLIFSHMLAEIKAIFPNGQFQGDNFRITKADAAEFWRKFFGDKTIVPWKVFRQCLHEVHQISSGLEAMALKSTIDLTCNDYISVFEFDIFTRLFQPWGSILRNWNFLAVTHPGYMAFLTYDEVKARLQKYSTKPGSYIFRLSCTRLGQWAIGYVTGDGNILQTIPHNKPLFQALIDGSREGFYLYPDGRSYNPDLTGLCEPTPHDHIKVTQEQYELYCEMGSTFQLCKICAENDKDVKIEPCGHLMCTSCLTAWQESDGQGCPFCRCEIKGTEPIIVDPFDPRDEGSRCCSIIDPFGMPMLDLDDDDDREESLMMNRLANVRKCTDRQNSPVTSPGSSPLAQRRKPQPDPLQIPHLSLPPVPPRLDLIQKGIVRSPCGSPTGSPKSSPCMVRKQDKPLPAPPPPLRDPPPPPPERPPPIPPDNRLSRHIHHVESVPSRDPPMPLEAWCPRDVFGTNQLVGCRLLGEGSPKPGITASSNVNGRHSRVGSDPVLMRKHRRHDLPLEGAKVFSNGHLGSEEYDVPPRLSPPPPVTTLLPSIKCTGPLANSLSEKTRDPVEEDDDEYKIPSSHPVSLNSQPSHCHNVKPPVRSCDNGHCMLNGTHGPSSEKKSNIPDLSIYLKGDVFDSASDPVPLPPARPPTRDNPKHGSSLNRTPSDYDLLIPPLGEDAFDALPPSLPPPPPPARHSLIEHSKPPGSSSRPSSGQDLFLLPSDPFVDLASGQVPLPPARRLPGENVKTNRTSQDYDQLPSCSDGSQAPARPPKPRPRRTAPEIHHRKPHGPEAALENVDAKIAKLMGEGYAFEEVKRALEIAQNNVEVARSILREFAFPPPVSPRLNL

Compound | IC50 [1] [nM] | fold change (FC) [2] | fold change (FC) [3] | fold change (FC) [4] | fold change (FC) ([5]; 1 µM) | fold change (FC) ([6]; 0.3 µM) | fold change (FC) [7] | fold change (FC) [5] | fold change (FC) [6]
Cn1cnnc1[C@H](F)C1(c2cccc(N3Cc4c(cc(CN5C6CCCC5CC6)cc4C(F)(F)F)C3=O)c2)COC1 (stereo in doubt; 671b) | < 100 | >=7.5 | >=7.5 | >=0.201 | >=1.76 | >=1.76 | >=1.001 |  | 
Cn1cnnc1CC1(c2cccc(NC(=O)c3cc(CN4CCC5CC54)cc(C4CC4)n3)c2)COC1 (stereo unspecified) | < 100 | >=7.5 | >=7.5 | >=0.201 |  |  | >=1.001 | 1.31 | 1.31
Cc1cc(C(=O)Nc2cccc(C3([C@H](F)c4nncn4C)COC3)c2)nc(C2CC2)n1 | < 100 | 5 | 2.51 | 0.151 |  |  | >=1.001 | 1.01 | 1.01
Cn1cnnc1CC1(c2cccc(N3Cc4c(cc(N5CCN6CCC[C@H]6C5)cc4C(F)(F)F)C3=O)c2)COC1 | < 100 | >=7.5 | >=7.5 | >=0.201 |  |  | >=1.001 | >=1.76 | >=1.76
Cc1c[nH]nc1-c1cc([C@H](C)Cc2nncn2C)cc(N2Cc3c(cccc3C(F)(F)F)C2=O)n1 | ≤ 300 | 1.01 | 1.01 | 0.051 |  |  | <=0.6 | 1.01 | 1.01
Cn1cnnc1CC1(c2cccc(NC(=O)c3cc(OC(F)F)cc(C4CC4)n3)c2)COC1 | < 100 | >=7.5 | 5 | >=0.201 |  |  | >=1.001 | 1.01 | 1.01
Cn1cnnc1CC1(c2cccc(N3Cc4c(cc(CN5CC[C@H]6C[C@H]65)cc4C(F)(F)F)C3=O)c2)COC1 | < 100 | >=7.5 | >=7.5 | >=0.201 |  |  | >=1.001 | 1.51 | 1.51
CCOc1cc(N2Cc3c(cc([C@@H](C)N4CC[C@H](F)C4)cc3C(F)(F)F)C2=O)cc(C2(Cc3nncn3C)COC2)c1 | < 100 | >=7.5 | >=7.5 | >=0.201 |  |  | >=1.001 | 1.51 | 1.31
Cn1cnnc1CC1(c2cccc(N3Cc4c(cc(N5CC6(C5)CC(F)(F)C6)cc4C(F)(F)F)C3=O)c2)COC1 | < 100 | >=7.5 | 5 | 0.101 |  |  | >=1.001 | 1.31 | 1.01
C[C@H](c1cc2c(c(C(F)(F)F)c1)CN(c1cccc(C3(Cc4nncn4C)COC3)c1)C2=O)N1CC(C)(F)C1 | < 100 | >=7.5 | 5 | >=0.201 |  |  | >=1.001 | 1.51 | 1.51
Cn1cnnc1CC1(c2cccc(N3Cc4c(cc(CN5CC6C(C5)C6(F)F)cc4C(F)(F)F)C3=O)c2)COC1 (stereo unspecified) | < 100 | >=7.5 | 5 | >=0.201 |  |  | >=1.001 | 1.31 | 1.31
C[C@H](c1cc2c(c(C(F)(F)F)c1)CN(c1cccc(C3(Cc4nncn4C)COC3)c1)C2=O)N1CCC2(CC1)CC2 | < 100 | >=7.5 | >=7.5 | >=0.201 |  |  | >=1.001 | 1.01 | 1.01
CN1CCN(Cc2cc3c(c(C(F)(F)F)c2)CN(c2cccc(C4(Cc5nncn5C)COC4)c2)C3=O)CC1 | < 100 | >=7.5 | 2.51 | >=0.201 |  |  | >=1.001 | 1.31 | 1.31
Cn1cnnc1CC1(c2cccc(N3Cc4c(cc(CN5CCC(F)(F)CC5)cc4C(F)(F)F)C3=O)c2)COC1 | < 100 | >=7.5 | >=7.5 | >=0.201 |  |  | >=1.001 | 1.31 | 1.31
Cn1cnnc1CC1(c2cccc(N3Cc4c(cc(C(F)(F)CO)cc4C(F)(F)F)C3=O)c2)COC1 | < 100 | 1.01 | 1.01 | 0.101 |  |  | 0.801 | 1.01 | 1.01
Cc1cc(C(=O)Nc2cccc(C3(C(F)(F)c4nncn4C)COC3)c2)nc(C2CC2)n1 | < 100 | 5 | 2.51 | 0.101 |  |  | 0.801 | 1.31 | 1.01
CC(c1cc2c(c(C3CC3)n1)CN(c1cccc(C3(Cc4nncn4C)COC3)c1)C2=O)N1CCCCC1 (stereo unspecified) | < 100 | >=7.5 | 5 | >=0.201 |  |  | 0.601 | >=1.76 | >=1.76
C[C@H](c1cc2c(c(C(F)(F)F)c1)CN(c1cccc(C3(Cc4nncn4C)COC3)c1)C2=O)N1CC(F)C1 | < 100 | 5 | 2.51 | 0.101 |  |  | >=1.001 | 1.51 | 1.31
C[C@H]1CN(C)CCN1c1cc2c(c(C(F)(F)F)c1)CN(c1cccc(C3(Cc4nncn4C)COC3)c1)C2=O | < 100 | >=7.5 | 5 | >=0.201 |  |  | >=1.001 | 1.31 | 1.01
CC(c1cc(C(=O)Nc2cccc(C3(Cc4nncn4C)COC3)c2)nc(C2CC2)n1)N1CCC2(CC2)C1 (single isomer, unassigned; 592a) | < 100 | >=7.5 | 5 | >=0.201 |  |  | >=1.001 | 1.01 | 1.01
Cn1cnnc1CC1(c2cccc(N3Cc4c(cc(CN5[C@@H]6CC[C@H]5C[C@H](F)C6)cc4C(F)(F)F)C3=O)c2)COC1 | < 100 | >=7.5 | 5 | >=0.201 |  |  | >=1.001 | >=1.76 | >=1.76
Cn1cnnc1CC1(c2cccc(N3Cc4c(cc(C(N5CCCC5)C(F)(F)F)cc4C(F)(F)F)C3=O)c2)COC1 (stereo unspecified) | < 100 | 2.51 | 1.01 | 0.051 |  |  | 0.801 | 1.31 | 1.01
CC(c1cc(C(=O)Nc2cccc(C3(Cc4nncn4C)COC3)c2)nc(C2CC2)n1)N1CCCC1 (stereo unspecified) | < 100 | >=7.5 | >=7.5 | >=0.201 |  |  | >=1.001 | 1.31 | 1.31
Cc1cc(C(=O)Nc2cccc(C3(Cc4nncn4C)CC(F)(F)C3)c2)nc(C2CC2)n1 | < 100 | >=7.5 | 5 | >=0.201 |  |  | >=1.001 | 1.01 | 1.01
Cn1cnnc1CC1(c2cccc(N3Cc4c(cc(N5CC(C(F)(F)F)C5)cc4C(F)(F)F)C3=O)c2)COC1 | < 100 | >=7.5 | 2.51 | 0.051 |  |  | >=1.001 | 1.01 | 1.01
Cn1cnnc1[C@H](F)C1(c2cccc(N3Cc4c(cc(CN5CCCC5)cc4C(F)(F)F)C3=O)c2)COC1 | < 100 | >=7.5 | >=7.5 | >=0.201 |  |  | >=1.001 | 1.31 | 1.31
CCOc1cc(N2Cc3c(cc([C@H](C)N4CC[C@H](F)C4)cc3C(F)(F)F)C2=O)cc(C2(Cc3nncn3C)COC2)c1 | < 100 | >=7.5 | 2.51 | 0.151 |  |  | >=1.001 | 1.51 | 1.31
CCOc1cc(NC(=O)c2cc(C)nc(C3CC3)n2)cc(C2(Cc3nncn3C)COC2)c1 | < 100 | 5 | 2.51 | 0.051 |  |  | 0.801 | 1.01 | 1.01

Reference: ChEMBL document CHEMBL5050844 (2019)
